Results from US8663679B2, “Compositions for improving breast health in women” (Abbott Laboratories, priority 2004, dated 2014).

Experiments:
[1] = tested on: MCF-10A cells, human fibrocystic mammary gland epithelial cells; experiment: Cell proliferation assay (ViaLight Plus, ATP); assay type: cell-based; details: MCF10A, 72 hours
Description: Cells with no treatment are the controls. Plates are incubated at 37° C. for 72 hours.

[2] = tested on: MCF-7 human breast adenocarcinoma cells; experiment: Cell proliferation assay (ViaLight Plus, ATP); assay type: cell-based; details: MCF7, 72 hours
Description: (§1) MCF-7 human breast adenocarcinoma cells (ATCC) are maintained in Eagle's Minimal Essential Medium supplemented with 10% FBS (Gibco-BRL), 1% Penicillin-Streptomycin-Glutamine and 10 nM 17β Estradiol, (Sigma). MCF-10A cells, human fibrocystic mammary gland epithelial cells (ATCC) and HMEC, human mammary gland epithelial cells (Cambrex) are maintained in mammary epithelial complete growth medium (MEGM) containing the Bullet Kit (Cambrex Bio Sciences).
(§2) Cells are seeded on 24-well plates at 20-25×10^3 cells/well in 0.4-0.5 ml of their respective media. […] Cells with no treatment are the controls. Plates are incubated at 37° C. for 72 hours. Cell proliferation is measured using ViaLight Plus Cell Proliferation and Cytotoxicity BioAssay Kit by quantifying the amount of ATP released from the cells according to manufacture's protocol.
Cell culture plates are warmed up to room temperature for 5 minutes and 200 μl of cell lysis reagent is added to each well. After incubation at room temperature for 10 minutes with intermediate swirling of the plate, 100 μl of the sample from each well is loaded in triplicate in a white 96-well microtiter plate, Dynex Microlite 1+, for vialight assay. The ATP monitoring reagent (AMR) is reconstituted in assay buffer and allowed to equilibrate for 15 minutes at room temperature.
(§3) The luminometer and associated WinGlow software program are set up and primed with reconstituted AMR. The plate is placed in the luminometer and 100 μl of reconstituted AMR is dispensed per well. The luminometer is programmed to take one second integrated reading of each appropriate well. The plates are incubated for 2 minutes at room temperature in the luminometer and one second integrated reading of each appropriate well is initiated.
Average RLU (relative luciferase unit) values for each set of triplicate wells, using Winglow software and Microsoft Excel, is calculated and graphed. Effects of various treatments are calculated by plotting the percent of inhibition of cell proliferation versus the concentration of treatment. Percent inhibition of cell proliferation is calculated using the formula: […]

thyroid follicular cells = details: well known; cited from earlier work
[3] = tested on: HMEC, human mammary gland epithelial cells; details: 72 hours
Description: as §1
as §2, with “protocol. […]” for “protocol.”
as §3, with “The plate is placed in the luminometer and 100 μl of reconstituted AMR is dispensed per well.” left out
Average RLU (relative luciferase unit) values for each set of triplicate wells, using Winglow software and Microsoft Excel, is calculated and graphed. […]

MCF10A cells = details: GLA 0, 50, 100 μM, 48 hours
Description: (§4) Cells are grown in T75 flasks up to 70-80% confluence before being treated with desired fatty acids conjugated with BSA for 48 hours at 37° C. at various concentrations (0, 50, 100 μM). After incubation, the cells are trypsinized from the flask and the cell suspensions are pooled and collected in 50 ml tubes. Each cell type and each treatment is done in duplicate. Cell suspensions are then centrifuged at 1000 rpm for 10 minutes each. Supernatants are discarded and the pellets suspended in phosphate buffered saline. The cells are washed twice with 10 ml of PBS (Phosphate buffer saline) at each step and centrifuged. The pellets are re-suspended in 10 ml of PBS and counted and the cell numbers are normalized for the experiment. The cell suspension is centrifuged again and the pellets stored at −80° C. until lipid extraction is performed.
(§5) Briefly, each cell pellet from a 50 ml culture is vortexed with 6 ml of methanol, followed by the addition of 12 ml of chloroform and 100 μg of tridecanoin (as internal standard). The mixture is incubated at 4° C. overnight. The chloroform layer is extracted and filtered through a Whatman filter with one gram of anhydrous sodium sulfate to remove particulates and residual water. Organic solvents are evaporated to dryness at 40° C. under a stream of nitrogen. […]

MCF7 cells = details: MCF7, GLA 0, 50, 100 μM, 48 hours
Description: as §4, §5

In the case of [I-].[K+] [Iodine, potassium iodide], the “anti-proliferative activity on fibrocystic cells” value [1] is given as “does not show any anti-proliferative effect”, the “anti-proliferative activity on breast cancer cells” value [2] is given as “does not show any anti-proliferative effect” and the “proliferation of thyroid follicular cells” value (thyroid follicular cells) is given as “inhibits proliferation”.
With O=[Se](=O)([O-])[O-].[Na+].[Na+] [Selenium, sodium selenate] the “anti-proliferative activity on fibrocystic cells” value [1] was “anti-proliferative activity”, the “anti-proliferative activity on breast cancer cells” value [2] was “anti-proliferative activity” and the “anti-proliferative activity on normal breast cells” value [3] was “no relative effect”.
For CCCCC/C=C\C/C=C\C/C=C\CC(I)C1CCCC(=O)O1 (stereo not drawn) [iodo-arachidonate, 6-iodo-5-hydroxy-eicosatrienoic acid-delta-lactone], the “anti-proliferative activity on breast cancer cells” value [2] was “significant inhibitory effect”.
With CCCCC/C=C\C/C=C\C/C=C\CCCCC(=O)O [GLA, (Z,Z,Z)-6,9,12-octadecatrienoic acid] the “anti-proliferative activity on fibrocystic cells” value [1] was “significant anti-proliferative activity”, the “anti-proliferative activity on breast cancer cells” value [2] was “no effect” and the “anti-proliferative activity on normal breast cells” value [3] was “no effect”. The “production of arachidonic acid” value (MCF10A cells) was “increased production of arachidonic acid” and the “production of arachidonic acid” value (MCF7 cells) was “increased production of arachidonic acid”.
